Assay results taken from the METLIN SMRT retention time set (Domingo-Almenara et al. 2019).

Assay: gradient 5% acetonitrile 3 min, to 50% in 2 min, to 85% in 15 min, held 3 min, 100 µL/min
Conditions: column: Zorbax Extend-C18 2.1 x 50 mm; eluents: water / acetonitrile, 0.1% formic acid
In short: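 Standards, all pure, were combined into mixtures of ~100 molecules and run at 100 μL/min on a Zorbax Extend-C18 column (2.1 × 50 mm, 1.8 μm) with water and acetonitrile, each containing 0.1% formic acid. A coupled quadrupole time-of-flight mass spectrometer operated in positive and negative ionization mode. Retention time values come from computationally picked adduct peaks, each inspected manually.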

Structure (SMILES)	RP-LC retention time [s]
CN(C)CC[C@@H](c1ccc(Cl)cc1)c1ccccn1	659
Cc1cc(C)cc(N2CCC(NC(=O)c3ccc(C)s3)C2=O)c1 (stereo not given)	904
CCOc1ccc(-n2cc(C(=O)OCC(=O)OC(C)C)c3ccccc3c2=O)cc1	1140
O=C(CSc1cc(-c2ccc(F)cc2)ncn1)NCc1ccc2c(c1)OCO2	825
CCOC(=O)c1ccc(NC(=O)CN2CCN(Cc3ccccc3)C(=O)C2=O)cc1	766
Cc1ccc(NC(=O)N2CCC(CC(=O)N3CCCCC3)CC2)cc1Cl	861
O=C(COc1ccccc1)N1CCC(CNS(=O)(=O)Cc2cccc(F)c2)CC1	782
Fc1ccc(-c2nnc(Cc3nc(-c4ccccc4F)no3)o2)cc1	1010
CCCCn1cc(S(=O)(=O)N2CCN(c3ccccc3C)CC2)c2cccnc21	1280
Cc1ccsc1C(=O)NCC1Cn2cccc2C(=O)N1C (stereo not given)	656
Cc1ccccc1Cn1cc(C(=O)O)c(S(=O)(=O)N2CCSCC2)n1	848
CC(C)CN(CC1CCCO1)C(=O)CN1CC2=C(C1=O)C(c1ccccc1Cl)NC(=O)N2C (stereo not given)	999
COC(=O)C1=CN(C2CC2)c2cc(N3CCN(c4ccc(OC)cc4)CC3)c(F)cc2S1(=O)=O	856
COCCN(CC(=O)N1CCc2sccc2C1COc1ccccc1C)C(=O)CC(C)C (stereo not given)	973
CCc1nc2c(c(=O)n1CC(=O)Nc1ccc(C)cc1)CN(Cc1ccccc1)CC2	672
CCc1nc(-c2csc(S(=O)(=O)N3CCCC(C(=O)Nc4cc(C)cc(C)c4)C3)c2)no1 (stereo not given)	1090
N#Cc1cccc(-c2cn3c(n2)N(C(=O)CC2CCCC2)CCC3)c1	848
O=C1CCN(S(=O)(=O)c2ccccc2)CCCN(C(=O)C2(c3ccccc3)CC2)CCN1	758
CCOc1ccc(CC(=O)Nc2cc3c(cc2N(C)C)n(C)c(=O)c(=O)n3C)cc1OCC	763
CC1=NOC(C)(CNC(=O)NC2CCCC2)C1 (stereo not given)	633

Structure (SMILES)	RP-LC retention time [s]
COc1cccc(-n2c(=O)c(C(=O)Nc3ccccc3)c(O)c3cccnc32)c1	1220
CCCn1cc(C(=O)N2CCOCC2)c2cccnc21	640
CN1C(=O)c2cccn2CC1CNC(=O)c1[nH]nc2c1COc1ccccc1-2 (stereo not given)	685
CN(C(=O)c1cc2c(=O)oc3ccccc3c2n1C)c1ccccc1F	1060
Cc1noc(C)c1Cc1ccc(C(=O)N2CCCC(c3[nH]ccc3C(N)=O)C2)o1 (stereo not given)	649
CN(C)C(=O)Cn1c(C(F)(F)F)nc2cc3c(cc21)OCCO3	694
Oc1ccc([C@@H]2Oc3ccc(O)cc3[C@@H]3CCC[C@@H]32)cc1	866
CCCCC(=O)Nc1nc(-c2ccc3c(c2)NC(=O)CO3)c(C)s1	839
Cc1ccc(CN2CCN(CC(=O)NCCCc3ccccc3)C(=O)C2=O)cc1	794
Cc1ccccc1CN1C(=O)CN(S(=O)(=O)c2ccccc2)CC1(C)C(=O)NC1CCCCC1 (stereo not given)	1020
COc1cccc(NC(=O)NC2CCN(c3cc(C)cc(C)c3)C2=O)c1 (stereo not given)	870
O=S(=O)(Nc1ccc(F)cc1)c1ccc2c(c1)-c1oncc1CO2	866
O=C(c1cc(-c2ccco2)on1)N1CCCC1c1ccccc1F (stereo not given)	777
Cc1ccccc1S(=O)(=O)N1CCC(OCCOCc2ccccc2)CC1	1130
CN(CCc1noc(-c2ccc(C(=O)N3CCCC3)cc2)n1)C(=O)c1ccccc1Br	736
CC(C)N1C(=O)c2cccnc2Sc2cc(NC(=O)C3(c4ccccc4)CC3)ccc21	1020
CCN1CCN(Cc2ccc(C(=O)N3CCN(c4ccc(C)cc4)CC3)cc2)C(=O)C1=O	694
Clc1ccccc1-c1nc2ccccc2[nH]1	663
Cc1cccc(CN2N=C(C(=O)N3CCOCC3)S(=O)(=O)c3ccccc32)c1	832
CS(=O)(=O)c1ccc2nc(NCCc3cccs3)sc2c1	738

Structure (SMILES)	RP-LC retention time [s]
CCn1cc(S(=O)(=O)N2CCC(n3c(C)cnc3-c3ccccc3)CC2)cn1	631
CN(Cc1ccccc1)C(=O)c1cc2cccnc2n(Cc2ccccc2)c1=O	950
O=C1C(N2CCCN(S(=O)(=O)c3cc(F)cc(F)c3)CC2)CCN1CC1CC1 (stereo not given)	661
CCOc1ccc(NC(=O)N2CCC3(CC2)NC(=O)c2ccccc2N3C)cc1	781
CC(C)CCNC(=O)c1ccc2c(c1)N(C)C(=O)C1CCCCN21 (stereo not given)	885
CCCn1ncc(N2CCC(C(=O)N3CCOCC3)CC2)cc1=O	619
CC(C)OCCCNC(=O)CCc1c(-c2ccc(Br)cc2)nc2ccccn12	652
CCn1cc(NC(=O)Nc2nc(C)cs2)c2ccccc21	792
CCc1ccc(S(=O)(=O)NCCc2cn(C)c3ncccc23)cc1	786
Cn1nc(C(=O)N2CCCC(C(=O)Nc3ccccc3)C2)c2c1CCN(C(=O)C1CCCC1)C2 (stereo not given)	786
Cc1ccn2cc(CC(=O)Nc3ccc(F)cc3)nc2c1	595
O=c1ccc(-c2ccc3c(c2)OCO3)nn1CCc1nc(-c2ccc(Br)cc2)no1	1050
CCn1ncc(NC(=O)COc2cccc(C)c2C)c(N2CCCCC2)c1=O	1230
CCCN1CCN(C(=O)c2cn(-c3cc(N4CCSCC4)ncn3)cn2)CC1	605
Clc1ccccc1N1CCN(c2nccn3nc(-c4ccccc4)cc23)CC1	1330
Cc1nn(C(C)C(=O)NCCCN(C)C2CCCCC2)c(=O)c2nn(-c3ccccc3)c(C)c12 (stereo not given)	656
CC(C)(C)c1ccc(C(=O)NC2CCN(c3cc(-c4ccccc4)[nH]n3)C2)cc1 (stereo not given)	872
CSc1ccc(NC(=O)N2CCN(c3cnn4c(C)nnc4c3)CC2)cc1	576

Other lines, results leading:

RP-LC retention time [s]	Structure (SMILES)
1280	CCc1nc2cc(-c3noc(COc4cccc(C)c4)n3)ccc2o1
734	Cc1nc(CC(=O)NC2CCCC2)sc1C(=O)NCc1ccccc1
1350	Fc1ccc(-c2noc(Cc3nc(-c4cccc(Cl)c4)cs3)n2)cc1
774	CCOC(=O)C1CCCN(Cc2nc(-c3cc(OC)c(OC)c(OC)c3)no2)C1 (stereo not given)
722	CC1Oc2ccccc2OC1C(=O)NCCn1nc(-c2ccco2)ccc1=O (stereo not given)
983	COc1ccc(-n2c(=O)c(C(=O)Nc3ccc(F)c(F)c3)c(O)c3cccnc32)cc1
857	CCOC(=O)c1nnc2c(-c3ccc(F)cc3)c(C)nn2c1N
594	CC(C)C(=O)Nc1ccc(CCc2nc3ccc(C(=O)NC4CC4)cc3[nH]2)cc1
1070	CCc1nc(-c2csc(S(=O)(=O)N3CCCC(C(=O)Nc4cccc(F)c4)C3)c2)no1 (stereo not given)
630	Cc1nc(Nc2ccc(Br)cn2)sc1C(=O)N1CCN(C(C)C)CC1
908	O=C(NC1CCCCC1)c1ccc2ccnc(N3CCN(c4ccc(F)cc4)CC3)c2c1
706	COc1ccc(NC(=O)Cc2csc(NC(=O)C3CC3)n2)cc1C
718	CCOC(=O)COc1ccc2c(c1)C(=O)CC1(CCN(C(C)=O)CC1)O2
796	CCNC(=O)c1ccc(-c2csc(C3CC3)n2)cc1
1010	COc1ccc(-c2noc(C3CCCN3C(=O)Nc3ccccc3C(F)(F)F)n2)cc1 (stereo not given)
981	O=C(C1CCN(c2nc3ccc(-c4cccc(F)c4)nc3s2)CC1)N1CCCC1

RP-LC retention time [s]	Structure (SMILES)
654	COCCc1noc(C2CN(C(=O)c3ccsc3)C2)n1
967	COc1ccc(NC(=O)Cn2cnc3c(sc4nc(-c5ccccc5)ccc43)c2=O)cc1
880	Cc1ccc(-n2c(N3CCCC(C(=O)NCc4cccs4)C3)nc3ccsc3c2=O)cc1 (stereo not given)
1060	Cc1oc(-c2cccs2)nc1COc1cc(C)c2c(C)nn(C)c2n1
921	CCCc1noc(-c2ccc3nnc(CC(=O)Nc4ccc(F)c(C)c4)n3c2)n1
700	Cc1ccc(NC(=O)Nc2ccc3nncn3c2)cc1
891	Cc1c(Cl)cccc1NC(=O)N1CCc2c(c(COc3ccccc3)nn2C)C1
820	Cc1noc(C)c1C(=O)N1CCCC1Cc1noc(C2CCCC2)n1 (stereo not given)
664	CCc1nn2c(CNC(=O)C3CCN(C(C)=O)CC3)c(-c3ccccc3)nc2s1
1040	Cc1sc(-c2cc(C(F)(F)F)on2)cc1S(=O)(=O)NC1CC1
855	C/C(=N\NC(N)=O)c1ccc(Cl)c(-n2cccc2)c1
668	CN1C(=O)Cc2ccccc2C1C(=O)NCc1ccco1 (stereo not given)
611	Nc1nc(Cl)nc2c1ncn2[C@@H]1O[C@H](CO)[C@H](O)C1O (stereo not given in full)
828	CCOC(=O)c1[nH]c(C)c(CCC(=O)N2CCC(C(=O)NCc3ccc(Cl)cc3)CC2)c1C
742	Cc1cnc(C(=O)N[C@@H]2CCC[C@@H]2C(=O)NCC2CCCCC2)cn1
764	Cn1nc(CNC(=O)c2cccs2)c2ccccc21
